Active and inactive are the calls of the source. No cut-off for these calls is given here.
Columns and labels:
[1] = tested on: Syrian golden hamster; experiment: Decrease in total cholesterol level in hamster at 50 mg/kg, po; format: functional
[2] = tested on: Syrian golden hamster; experiment: Increase in free fatty acid in hamster at 50 mg/kg, po; format: functional, Mesocricetus auratus
[3] = tested on: Syrian golden hamster; experiment: Increase in HDL cholesterol level in hamster at 50 mg/kg, po; format: functional, Mesocricetus auratus
[4] = tested on: Syrian golden hamster; experiment: Increase in HDL cholesterol to total cholesterol level in hamster at 50 mg/kg, po; format: functional, Mesocricetus auratus
[5] = tested on: Syrian golden hamster; experiment: Decrease in glycerol level in hamster at 50 mg/kg, po; format: functional, Mesocricetus auratus; set-up: scale not given: the % may be the effect or the level left
[6] = tested on: Syrian golden hamster; experiment: Decrease in plasma triglyceride level in hamster at 50 mg/kg, po; format: functional, Mesocricetus auratus; set-up: scale not given: the % may be the effect or the level left
[7] = tested on: Syrian golden hamster; experiment: Decrease in free fatty acid in hamster at 50 mg/kg, po; format: functional, Mesocricetus auratus; set-up: scale not given: the % may be the effect or the level left

SMILES	Activity ([1]; Mesocricetus auratus)	Activity [2]	Activity [3]	Activity [4]	Activity [5]	Activity [6]	Activity [1]	Activity [7]
CC(=O)OC1C(C)(C)OC(=O)C12COc1ccc3c(=O)cc(-c4ccccc4)oc3c12 (stereo not drawn)	inactive	7%	28%	26%	6%	41%		
CC(=O)O[C@@H]1[C@@H]2c3c(ccc4c(=O)cc(-c5ccccc5)oc34)O[C@@H]2OC1(C)C			8%	36%	13%	60%	19%	25%
CC(=O)O[C@H]1[C@@H]2c3c(ccc4c(=O)cc(-c5ccccc5)oc34)O[C@@H]2OC1(C)C			8%	36%	13%	60%	19%	25%
